Source: patent US11691989B2, “Macrocyclic indoles as Mcl-1 inhibitors” (ASCENTAGE PHARMA (SUZHOU) CO., LTD., priority 2018, dated 2023)

Legend:
[1] = Kinetic solubility assay in PBS buffer; type: physicochemical; details: for solubility: PBS buffer, pH 6.5, aqueous buffer, thermodynamic from solid, read-out: Solubility (pH 6.5, μg/mL)
Experimental: Representative Compounds of the Disclosure were tested in a kinetic solubility assay in PBS buffer. PBS buffer was prepared by dissolving 4.86 g of potassium dihydrogen phosphate and 5.09 g of disodium hydrogen phosphate dodecahydrate in 1 L of ultrapure water (final pH 6.5). 0.5 mg of test sample was dissolved in 1 mL of methanol and the stock solution was transferred into 2 mL EP tube, and evaporated at 50° C. for 3 h. To the tube was added 1 mL of PBS buffer and the mixture was stirred and shaken for 1-2 h. The solution was allowed to stand overnight and then filtered before HPLC analysis. Another 1.5 mg of the sample was dissolved in 3 mL of methanol to prepare a calibration curve with a series of concentration range of 5-500 μM. The solubility of each sample was determined by the measured peak area in HPLC.

NCI-H929 cells = test: Cell viability assay (NCI-H929 cells), CCK-8; type: cell-based; details: 5% FBS
Outline: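 NCI-H929 cells (20000/well) exposed to serially diluted compounds for 24 h at 37 °C, 5% CO2. Viability by CCK-8, absorbance at 450 nm after 1-4 h, normalized to vehicle-treated cells. IC50 by nonlinear regression.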

OPM-2 cells = test: Cell viability assay (OPM-2 cells), CCK-8; type: cell-based; details: 5% FBS
Outline: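 OPM-2 myeloma cells (20000/well) incubated with serially diluted compound for 24 h at 37 °C, 5% CO2. Viability read by CCK-8 (4 h) absorbance at 450 nm, normalised to vehicle; IC50 from nonlinear regression.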

[2] = molecular target: Mcl-1 protein (residues 171-323) (Homo sapiens (Human), UniProt Q07820); test: Inhibition of Mcl-1 by fluorescence polarization (FP) competitive binding assay with FAM-Bid tracer; details: 2 nM FAM-Bid, 20 nM Mcl-1, 30 min, read-out: Mc1-1 (FP)
Outline: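 Competitive FP binding of compounds against FAM-Bid tracer (final 2 nM) on Mcl-1 (final 20 nM) in PBS with 0.01% BGG and 0.01% Triton X-100, 5% final DMSO.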

[3] = Microsome clearance assay, human; type: in vitro ADME; details: 0.5 mg/ml protein, 1 mM NADPH, 60 minutes; for microsomal CLint at 5 μM: human, pooled liver microsomes, pH 7.4, human liver microsomes, read-out: Human Liver Microsome Clint (μL/min/mg protein)
Experimental: (§1) Representative Compounds of the Disclosure were tested in a microsome clearance assay. Pooled liver microsomes (20 mg/ml) from human, male Wister rat, and male CD-1 mouse were obtained from BD Bioscience (Franklin Lakes, N.J. USA). Incubation reaction mixtures contained a final concentration of 0.1M sodium phosphate buffer (pH 7.4), 0.5 mg/ml microsomal protein, 5 μM of test sample and 1 mM NADPH in a total volume of 400 μl. The incubations were done for 60 minutes and 300 μl of the mixtures was transferred to 150 μl of ice cold methanol to terminate reactions. After vortexes for 3 minutes and centrifuged at 4000 rpm at 4° C. for 10 minutes, the clear supernatant was used directly for analysis. The samples were analyzed by Applied Biosystems API 3200 Q TRAP LC/MS/MS system using electrospray ionization mode.

[4] = Microsome clearance assay, rat; type: in vitro ADME; details: 0.5 mg/ml protein, 1 mM NADPH, 60 minutes; for microsomal CLint at 5 μM: male, Wister, rat, pooled liver microsomes, pH 7.4, rat liver microsomes, read-out: Rat Liver Microsome Clint (μL/min/mg protein)
Experimental: as §1

[5] = Microsome clearance assay, mouse; type: in vitro ADME; details: 0.5 mg/ml protein, 1 mM NADPH, 60 minutes; for Mouse Liver Microsome Clint (μL/min/mg protein): mouse liver microsomes, 5 μM; for microsomal CLint at 5 μM: male, CD-1, mouse, pooled liver microsomes, pH 7.4, mouse liver microsomes, read-out: Mouse Liver Microsome Clint (μL/min/mg protein)
Experimental: as §1

Sequence of Mcl-1 protein (residues 171-323) (Q07820 171-323): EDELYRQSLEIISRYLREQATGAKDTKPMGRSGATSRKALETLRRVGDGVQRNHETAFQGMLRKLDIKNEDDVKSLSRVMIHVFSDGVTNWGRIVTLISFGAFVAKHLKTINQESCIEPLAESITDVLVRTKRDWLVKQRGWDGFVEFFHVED

SMILES | solubility [1] | IC50 (NCI-H929 cells; Homo sapiens, NCI-H929, 24 h) | IC50 (OPM-2 cells; Homo sapiens, OPM-2, 24 h) | IC50 [2] | Solubility (pH 6.5, μg/mL) ([1]; PBS buffer pH 6.5) | Human Liver Microsome Clint (μL/min/mg protein) ([3]; human liver microsomes, 5 μM) | IC50 (NCI-H929 cells; 24 hrs) | Rat Liver Microsome Clint (μL/min/mg protein) ([4]; rat liver microsomes, 5 μM) | IC50 (OPM-2 cells; 24 hours) | Mouse Liver Microsome Clint (μL/min/mg protein) [5] | microsomal CLint at 5 μM [3] | microsomal CLint at 5 μM [4] | microsomal CLint at 5 μM [5]
Cc1c2c(nn1C)CSCc1cc(n(C)n1)CSc1cc(c3ccccc3c1)OCCCn1c(C(=O)O)c(Cl)c3c-2c(Cl)ccc31 [Cpd. No. 9, (Z)-1^3,1^5-dichloro-2^1,2^5,6^1-trimethyl-1^1H,2^1H,6^1H-10-oxa-4,8-dithia-1(4,1)-indola-2(4,3),6(3,5)-dipyrazola-9(3,1)-naphthalenacyclotridecaphane-1^2-carboxylic acid] | > 400 µg/mL | 479 nM | 1250 nM | 14 nM |  |  |  |  |  |  |  |  | 
Cc1c(C(=O)O)n2c3ccc(Cl)c(c13)-c1c(nn(C)c1C)CSCc1cc(n(C)n1)CSc1cc(c3ccccc3c1)OCCC2 (atropisomer, axis not shown) [Cpd. No. 7, (S)-(Z)-1^5-chloro-1^3,2^1,2^5,6^1-tetramethyl-1^1H,2^1H,6^111-10-oxa-4,8-dithia-1(4,1)-indola-2(4,3),6(3,5)-dipyrazola-9(3,1)-naphthalenacyclotridecaphane-1^2-carboxylic acid] |  |  |  | > 1000 nM | 6 μg/mL | 38.0 μL/min/mg protein | 7440 nM | 111 μL/min/mg protein | > 10000 nM | 245 μL/min/mg protein |  |  | 
Cc1c(C(=O)O)n2c3ccc(Cl)c(c13)-c1c(nn(C)c1C)CN(S(C)(=O)=O)Cc1cc(n(C)n1)CSc1cc(c3ccc(F)cc3c1)OCCC2 [Cpd. No. 32, (Z)-1^5-chloro-9^6-fluoro-1^3,2^1,2^5,6^1-tetramethyl-4-(methylsulfonyl)-1^1-H,2^1H, 6′H-10-oxa-8-thia-4-aza-1(4,1)-indola-2(4,3),6(3,5)-dipyrazola-9(3,1)-naphthalenacyclotridecaphane-1^2-carboxylic acid] | > 400 µg/mL |  |  | 36 nM |  |  | 213 nM |  | 542 nM | 35.0 μL/min/mg protein | 4.4 µL/min/mg | 10.8 µL/min/mg | 
Cc1c(C(=O)O)n2c3ccc(Cl)c(c13)-c1c(nn3c1COCC3)CSCc1cc(n(C)n1)CSc1cc(c3ccc(F)cc3c1)OCCC2 [Cpd. No. 4, (Z)-1^5-chloro-9^6-fluoro-1^3,6^1-dimethyl-2^6,2^7-dihydro-1^1H,24H,6^1H-10-oxa-4,8-dithia-2(3,2)-pyrazolo[5,1-c][1,4]oxazina-1(4,1)-indola-6(3,5)-pyrazola-9(3,1)-naphthalenacyclotridecaphane-1^2-carboxylic acid] | < 1 µg/mL | 49 nM | 438 nM | 14 nM |  |  |  |  |  |  | 13.8 µL/min/mg | 19.8 µL/min/mg | 41.2 µL/min/mg
Cc1c(C(=O)O)n2c3ccc(Cl)c(c13)-c1c(nn3c1CCC3)CSCc1cc(n(C)n1)CSc1cc(c3ccc(F)cc3c1)OCCC2 [Cpd. No. 2, (Z)-1^5-chloro-9^6-fluoro-1^3,6^1-dimethyl-2^5,2^6-dihydro-1^1H,2^4H,6^1H-10-oxa-4,8-dithia-1(4,1)-indola-2(3,2)-pyrrolo[1,2-b]pyrazola-6(3,5)-pyrazola-9(3,1)-naphthalenacyclotridecaphane-1^2-carboxylic acid] | < 1 µg/mL | 53 nM | 220 nM | 14 nM |  |  |  |  |  |  | 18.2 µL/min/mg | 31.2 µL/min/mg | 53 µL/min/mg
CNC(=O)Cn1nc(C)c2c1CSCc1cc(n(C)n1)CSc1cc(c3ccccc3c1)OCCCn1c(C(=O)O)c(C)c3c-2c(Cl)ccc31 [Cpd. No. 26, (Z)-1^5-chloro-1^3,2^3,6^1-trimethyl-2^1-(2-(methylamino)-2-oxoethyl)-1^1H,2^1H,6^1H-10-oxa-4,8-dithia-1(4,1)-indola-2(4,5),6(3,5)-dipyrazola-9(3,1)-naphthalenacyclotridecaphane-1^2-carboxylic acid] | < 1 µg/mL | 300 nM | 992 nM | 14 nM |  |  |  |  |  |  | 12.8 µL/min/mg | 14.2 µL/min/mg | 41.2 µL/min/mg
Cc1c(C(=O)O)n2c3ccc(Cl)c(c13)-c1c(nn3c1CC(C)(C)C3)CSCc1cc(n(C)n1)CSc1cc(c3ccc(F)cc3c1)OCCC2 [Cpd. No. 3, (Z)-1^5-chloro-9^6-fluoro-1^3,2^5,2^5,6^1-tetramethyl-2^5,2^6-dihydro-1^1H,2^4H,6^1H-10-oxa-4,8-dithia-1(4,1)-indola-2(3,2)-pyrrolo[1,2-b]pyrazola-6(3,5)-pyrazola-9(3,1)-naphthalenacyclotridecaphane-1^2-carboxylic acid] | < 1 µg/mL | 391 nM | 386 nM | 14 nM |  |  |  |  |  |  |  |  | 
CC(=O)NCc1c(C(=O)O)n2c3ccc(Cl)c(c13)-c1c(nn(C)c1C)CSCc1cc(n(C)n1)CSc1cc(c3ccccc3c1)OCCC2 [Cpd. No. 12, (Z)-1^3-(acetamidomethyl)-1^5-chloro-2^1,2^5,6^1-trimethyl-1^1H,2^1H,6^1E-10-oxa-4,8-dithia-1(4,1)-indola-2(4,3),6(3,5)-dipyrazola-9(3,1)-naphthalenacyclotridecaphane-1^2-carboxylic acid] |  | 273 nM | 9860 nM | 18 nM |  |  |  |  |  |  | 3.6 µL/min/mg | 30.6 µL/min/mg | 13.8 µL/min/mg
COCCN1Cc2cc(n(C)n2)CSc2cc(c3ccc(F)cc3c2)OCCCn2c(C(=O)O)c(C)c3c(c(Cl)ccc32)-c2c(nn3c2COCC3)C1 [Cpd. No. 50, (Z)-1^5-chloro-9^6-fluoro-4-(2-methoxyethyl)-1^3, 6^1-dim ethyl-2^6,2^7-dihydro-1^1H,2^4H,6^1H-10-oxa-8-thia-4-aza-2(3,2)-pyrazolo[5,1-c][1,4]oxazina-1 (4,1)-indola-6(3,5)-pyrazola-9(3,1)-naphthalenacyclotridecaphane-1^2-carboxylic acid] |  | 226 nM | 1640 nM | 20 nM |  |  |  |  |  |  | 10.2 µL/min/mg | 22.2 µL/min/mg | 65.2 µL/min/mg
Cc1c(C(=O)O)n2c3ccc(Cl)c(c13)-c1c(nn(C)c1C)CN(S(C)(=O)=O)Cc1cc(n(C)n1)CSc1cc(c3ccccc3c1)OCCC2 [Cpd. No. 46, (Z)-1^5-chloro-1^3,2^1,2^5,6^1-tetramethyl-4-(methylsulfonyl)-1^11-1,2^1H,6^1H-10-oxa-8-thia-4-aza-1(4,1)-indola-2(4,3),6(3,5)-dipyrazola-9(3,1)-naphthalenacyclotridecaphane-1^2-carboxylic acid] |  | 300 nM | 637 nM | 8 nM |  |  |  |  |  |  | 8 µL/min/mg | 21.6 µL/min/mg | 43.4 µL/min/mg
Cc1nn(C)c2c1-c1c(Cl)ccc3c1c(C)c(C(=O)O)n3CCCOc1cc(cc3cc(F)ccc13)SCc1cc(nn1C)CSC2 [Cpd. No. 28, (Z)-1^5-chloro-9^6-fluoro-1^3,2^1,2^3,6^1-tetramethyl-1^1H,2^1H,6^111-10-oxa-4,8-dithia-1(4,1)-indola-2(4,5),6(3,5)-dipyrazola-9(3,1)-naphthalenacyclotridecaphane-1^2-carboxylic acid] |  | 47 nM | 66 nM | 14 nM |  |  |  |  |  |  | 42.8 µL/min/mg | 38.4 µL/min/mg | 116 µL/min/mg
